Results from ChEMBL document CHEMBL4414615, “Sparticolins A-G, Biologically Active Oxidized Spirodioxynaphthalene Derivatives from the Ascomycete Sparticola junci” (J Nat Prod, 2019).
pIC50: −log10 of the molar value. Converted amounts (≈) assume the structure as drawn. The source made the active and inactive calls. The rule behind the calls is not given here.

Key:
MCF7 = assay: Cytotoxicity against human MCF7 cells assessed as reduction in cell growth incubated for 5 days by MTT assay; format: functional, cell-based; settings: for IC50: mcf7; for pIC50: Homo sapiens, MCF7, 120 h, read-out: IC50
Micrococcus luteus [1] = assay: Antibacterial activity against Micrococcus luteus DSM 1790 at 66 ug/ml incubated for 24 hrs by broth microdilution method; format: functional, organism-based
Bacillus subtilis [2] = assay: Antibacterial activity against Bacillus subtilis DSM 10 at 66 ug/ml incubated for 24 hrs by broth microdilution method; format: functional, organism-based
[3] = test system: Mycolicibacterium smegmatis; assay: Antibacterial activity against Mycobacterium smegmatis ATCC 700084 at 66 ug/ml incubated for 24 hrs by broth microdilution method; format: functional, organism-based
Staphylococcus aureus = assay: Antibacterial activity against Staphylococcus aureus DSM 346 incubated for 24 hrs by broth microdilution method; format: functional; settings: DSM 346, 24 h
A-431 = assay: Cytotoxicity against human A431 cells assessed as reduction in cell growth incubated for 5 days by MTT assay; format: functional, cell-based; settings: for IC50: a-431; for pIC50: Homo sapiens, A-431, 120 h, read-out: IC50
Mucor hiemalis [4] = assay: Antifungal activity against Mucor hiemalis DSM 2656 at 66 ug/ml incubated for 48 hrs by broth microdilution method; format: functional, organism-based
SK-OV-3 = assay: Cytotoxicity against human SKOV3 cells assessed as reduction in cell growth incubated for 5 days by MTT assay; format: functional, cell-based; settings: for IC50: sk-ov-3; for pIC50: Homo sapiens, SK-OV-3, 120 h, read-out: IC50
[5] = test system: Chromobacterium violaceum; assay: Antibacterial activity against Chromobacterium violaceum DSM 30191 at 66 ug/ml incubated for 24 hrs by broth microdilution method; format: functional, organism-based
PC-3 = assay: Cytotoxicity against human PC3 cells assessed as reduction in cell growth incubated for 5 days by MTT assay; format: functional, cell-based; settings: for IC50: pc-3; for pIC50: Homo sapiens, PC-3, 120 h, read-out: IC50
A549 = assay: Cytotoxicity against human A549 cells assessed as reduction in cell growth incubated for 5 days by MTT assay; format: functional, cell-based; settings: for IC50: a549; for pIC50: Homo sapiens, A549, 120 h, read-out: IC50
Wickerhamomyces anomalus [6] = assay: Antifungal activity against Pichia anomala DSM 6766 at 66 ug/ml incubated for 48 hrs by broth microdilution method; format: functional, organism-based
Candida albicans [7] = assay: Antifungal activity against Candida albicans DSM 1665 at 66 ug/ml incubated for 48 hrs by broth microdilution method; format: functional, organism-based
L929 = assay: Cytotoxicity against mouse L929 cells assessed as reduction in cell growth incubated for 5 days by MTT assay; format: functional, cell-based; settings: for IC50: l929; for pIC50: Mus musculus, L929, 120 h, read-out: IC50
Caenorhabditis elegans = assay: Nematicidal activity against Caenorhabditis elegans incubated for 18 hrs; format: functional; settings: for LC50: read-out: LD50 (the source's name)
[8] = test system: Schizosaccharomyces pombe; assay: Antifungal activity against Schizosaccharomyces pombe DSM 70572 at 66 ug/ml incubated for 48 hrs by broth microdilution method; format: functional, organism-based
KB 3-1 = assay: Cytotoxicity against human KB3-1 cells assessed as reduction in cell growth incubated for 5 days by MTT assay; format: functional, cell-based; settings: for pIC50: Homo sapiens, KB 3-1, 120 h, read-out: IC50; for IC50: kb 3-1
Pseudomonas aeruginosa [9] = assay: Antibacterial activity against Pseudomonas aeruginosa DSM PA14 at 66 ug/ml incubated for 24 hrs by broth microdilution method; format: functional, organism-based
Escherichia coli [10] = assay: Antibacterial activity against Escherichia coli DSM 1116 at 66 ug/ml incubated for 24 hrs by broth microdilution method; format: functional, organism-based
Rhodotorula glutinis [11] = assay: Antifungal activity against Rhodotorula glutinis DSM 10134 at 66 ug/ml incubated for 48 hrs by broth microdilution method; format: functional, organism-based
Pseudomonas aeruginosa [12] = assay: Antibacterial activity against Pseudomonas aeruginosa DSM PA14 incubated for 24 hrs by broth microdilution method; format: functional, organism-based
Mucor hiemalis [13] = assay: Antifungal activity against Mucor hiemalis DSM 2656 incubated for 48 hrs by broth microdilution method; format: functional
Rhodotorula glutinis [14] = assay: Antifungal activity against Rhodotorula glutinis DSM 10134 incubated for 48 hrs by broth microdilution method; format: functional
[15] = test system: Schizosaccharomyces pombe; assay: Antifungal activity against Schizosaccharomyces pombe DSM 70572 incubated for 48 hrs by broth microdilution method; format: functional
Wickerhamomyces anomalus [16] = assay: Antifungal activity against Pichia anomala DSM 6766 incubated for 48 hrs by broth microdilution method; format: functional
Candida albicans [17] = assay: Antifungal activity against Candida albicans DSM 1665 incubated for 48 hrs by broth microdilution method; format: functional
Escherichia coli [18] = assay: Antibacterial activity against Escherichia coli DSM 1116 incubated for 24 hrs by broth microdilution method; format: functional; settings: DSM 1116, 24 h
[19] = test system: Chromobacterium violaceum; assay: Antibacterial activity against Chromobacterium violaceum DSM 30191 incubated for 24 hrs by broth microdilution method; format: functional; settings: DSM 30191, 24 h
Bacillus subtilis [20] = assay: Antibacterial activity against Bacillus subtilis DSM 10 incubated for 24 hrs by broth microdilution method; format: functional; settings: DSM 10, 24 h
Micrococcus luteus [21] = assay: Antibacterial activity against Micrococcus luteus DSM 1790 incubated for 24 hrs by broth microdilution method; format: functional; settings: DSM 1790, 24 h
[22] = test system: Mycolicibacterium smegmatis; assay: Antibacterial activity against Mycobacterium smegmatis ATCC 700084 incubated for 24 hrs by broth microdilution method; format: functional; settings: ATCC 700084, 24 h

Row | Compound | IC50 (MCF7) | Activity (Micrococcus luteus [1]) | Activity (Bacillus subtilis [2]) | Activity [3] | MIC (Staphylococcus aureus) | IC50 (A-431) | Activity (Mucor hiemalis [4]) | IC50 (SK-OV-3) | Activity [5] | IC50 (PC-3) | IC50 (A549) | Activity (Wickerhamomyces anomalus [6]) | Activity (Candida albicans [7]) | IC50 (L929) | LC50 (Caenorhabditis elegans) | Activity [8] | pIC50 (KB 3-1) | Activity (Pseudomonas aeruginosa [9]) | Activity (Escherichia coli [10]) | Activity (Rhodotorula glutinis [11]) | also measured
1 | O=C(O)/C=C/C[C@H]1[C@@H](O)C=CC12Oc1cccc3cccc(c13)O2 | Not Active | inactive | inactive | inactive | 66.6 µg/mL (≈ 205 µM) | Not Active | inactive | Not Active | inactive | Not Active | Not Active | inactive | inactive | Not Active | 25 µg/mL (≈ 77.1 µM) | inactive | 4.40 | inactive | inactive | inactive | –
2 | C/C(=C\c1csc(C)n1)[C@@H]1C[C@@H]2O[C@]2(C)CCC[C@H](C)[C@H](O)[C@@H](C)C(=O)C(C)(C)[C@@H](O)CC(=O)O1 [PATUPILONE] | – | – | – | – | – | – | – | – | – | – | – | – | – | – | – | – | 10.05 | – | – | – | pIC50 (MCF7): 9.62; pIC50 (A-431): 10.10; pIC50 (SK-OV-3): 9.55; pIC50 (PC-3): 8.80; pIC50 (A549): 10.16; pIC50 (L929): 8.85
3 | GENTAMICIN | – | – | – | – | – | – | – | – | – | – | – | – | – | – | – | – | – | – | – | – | MIC (Pseudomonas aeruginosa [12]): 1 µg/mL
4 | NYSTATIN | – | – | – | – | – | – | – | – | – | – | – | – | – | – | – | – | – | – | – | – | MIC (Mucor hiemalis [13]): 4.2 µg/mL; MIC (Rhodotorula glutinis [14]): 1 µg/mL; MIC [15]: 8.3 µg/mL; MIC (Wickerhamomyces anomalus [16]): 8.3 µg/mL; MIC (Candida albicans [17]): 8.3 µg/mL
5 | CN(C)[C@@H]1C(=O)C(C(N)=O)=C(O)[C@@]2(O)C(=O)C3=C(O)c4c(O)cccc4[C@@](C)(O)[C@H]3[C@H](O)[C@@H]12.Cl | – | – | – | – | 2.1 µg/mL | – | – | – | – | – | – | – | – | – | – | – | – | – | – | – | MIC (Escherichia coli [18]): 33.3 µg/mL; MIC [19]: 4.1 µg/mL; MIC (Bacillus subtilis [20]): 2.4 µg/mL; MIC (Micrococcus luteus [21]): 4.2 µg/mL
6 | O=C(O)/C=C/C=C1\[C@@H](O)C=CC12Oc1cccc3cccc(c13)O2 | Not Active | inactive | inactive | inactive | 66.6 µg/mL (≈ 207 µM) | Not Active | inactive | Not Active | inactive | Not Active | Not Active | inactive | inactive | Not Active | 50 µg/mL (≈ 155 µM) | inactive | – | inactive | inactive | inactive | IC50 (KB 3-1): Not Active
7 | IVERMECTIN | – | – | – | – | – | – | – | – | – | – | – | – | – | – | – | – | – | – | – | – | LD50 (Caenorhabditis elegans): 1 µg/mL
8 | O=C(O)/C=C/C=C1\[C@@H](O)C[C@H](O)C12Oc1cccc3cccc(c13)O2 | Not Active | inactive | inactive | inactive | 66.6 µg/mL (≈ 196 µM) | Not Active | inactive | Not Active | inactive | Not Active | Not Active | inactive | inactive | Not Active | 50 µg/mL (≈ 147 µM) | inactive | – | inactive | inactive | inactive | IC50 (KB 3-1): Not Active
9 | O=C(O)/C=C/C=C1\C(=O)C=CC12Oc1cccc3cccc(c13)O2 | – | – | – | inactive | 4.2 µg/mL (≈ 13.1 µM) | – | – | – | inactive | – | – | inactive | inactive | – | 50 µg/mL (≈ 156 µM) | – | 6.10 | inactive | inactive | – | pIC50 (MCF7): 6.40; MIC (Mucor hiemalis [13]; DSM 2656, 48 h): 16.7 µg/mL (≈ 52.1 µM); pIC50 (A-431): 6.70; MIC (Bacillus subtilis [20]): 4.2 µg/mL (≈ 13.1 µM); MIC (Rhodotorula glutinis [14]; DSM 10134, 48 h): 33.3 µg/mL (≈ 104 µM); MIC ([15]; DSM 70572, 48 h): 33.3 µg/mL (≈ 104 µM); pIC50 (SK-OV-3): 6.22; pIC50 (PC-3): 6.05; pIC50 (A549): 5.66; pIC50 (L929): 6.22; MIC (Micrococcus luteus [21]): 8.3 µg/mL (≈ 25.9 µM)
10 | NC[C@H]1O[C@H](O[C@H]2[C@H](O)[C@@H](O[C@H]3O[C@H](CO)[C@@H](O)[C@H](N)[C@H]3O)[C@H](N)C[C@@H]2N)[C@H](O)[C@@H](O)[C@@H]1O [KANAMYCIN] | – | – | – | – | – | – | – | – | – | – | – | – | – | – | – | – | – | – | – | – | MIC [22]: 4.1 µg/mL (≈ 8.46 µM)
